Row | melting point | SMILES
1 | 157 °C | CCOc1ccc2c(c1)n(C1CCCCC1)c(=O)n2Cc1ccc(NC(=O)N(C)CCO)cc1OC
2 | 192 to 198 °C | Cc1c(C(F)(F)F)n(C)c(=O)n(-c2cc(N)c(C#C[Si](C)(C)C)cc2F)c1=O
3 | 64.7 to 67.9 °C | CSc1cc(C(=O)C(C#N)C(=O)C2CC2)ccc1C (stereo not drawn)
4 | > 78 °C | CCCCc1nn(-c2ccc([N+](=O)[O-])cc2C(F)(F)F)c(=O)n1Cc1ccc(-c2ccccc2S(=O)(=O)NC(C)(C)C)cc1
5 | 148 °C | C[C@@H](COC(F)(F)C(F)F)[C@](O)(Cn1cncn1)c1ccc(F)cc1F
6 | 148 to 150 °C | CON(c1ccc([N+](=O)[O-])cc1[N+](=O)[O-])S(=O)(=O)c1cccc(C)c1
7 | 74.6 °C | CCCCCCCCOc1ccc(-c2ncc(Br)cn2)c(F)c1F
8 | 104 to 107 °C | COc1ccc(C=O)cc1I
9 | 72 to 73 °C | O=C1NCCc2ccc(OCCCCN3CCN(c4cccc5c4OCC5)CC3)nc2N1
10 | 122 to 123 °C | CCOC(=O)c1cnn(-c2ccc(Oc3ccc(C)cc3O)cc2)c1
11 | 138 to 140 °C | CCCCn1cnc2c(Oc3cccc(OC)c3)nc(Nc3ccc(F)cc3)nc21
12 | 158 to 160 °C | O=C(c1ccccc1)c1cn2c3ccccc3c3cccc(c1=O)c32
13 | 128 to 130 °C | CCN(CC)c1ccc(S(=O)(=O)N2CCCC2=O)cc1
14 | 62 to 63 °C | O=C(CCCCl)Nc1cccc2cccnc12
15 | 149 to 152 °C | Cc1ccc2c(c1)OC(C(=O)O)Oc1ccccc1C2 (stereo not drawn)
16 | 208 to 209 °C | CS(=O)(=O)Nc1ccc(OCCCNC(=O)c2ccc(Br)cc2)cc1
17 | 153 to 155 °C | COC(=O)C(=NOCF)c1ccccc1Oc1ncnc(Oc2ccccc2Cl)c1F
18 | 222 to 225 °C | Cn1cnc(S(=O)(=O)n2c(CCCC(=O)O)cc3cc(Cl)ccc32)c1
19 | 265 to 266 °C | CC1(C)CCc2c(-c3ccoc3)nc3sc4c(NCc5ccncc5)ncnc4c3c2C1

Row | melting point | SMILES
20 | 195 to 197 °C | CC(=O)NC(C#N)NC(=O)c1cc(C)cc(C)c1 (stereo not drawn)
21 | 164 to 165 °C | COc1cc(COc2nn(Cc3ccccc3)cc2C(N)=O)ccc1OCc1nc(-c2ccccc2)oc1C
22 | 149 to 152 °C | N#CC(CO)Cc1cc(O)c(O)c([N+](=O)[O-])c1 (stereo not drawn)
23 | 212 °C | O=[N+]([O-])c1ccc(Oc2c(Cl)cc(S(=O)(=O)NC(=NO)Nc3ccc(Cl)cc3)cc2Cl)cc1
24 | 262 to 264 °C | Oc1ccc2c(-c3cccc4ccc(O)cc34)noc2c1
25 | 118 to 120 °C | CC12CCC(=O)C=C1CCC1C2CCC2(C)C(n3ccnn3)=CCC12 (stereo not drawn)
26 | 186 to 189 °C | COC(=O)c1ccc(COC(=O)Nc2ccc(-c3ccccc3)n(CC(=O)NC(Cc3ccccc3)C(=O)C(F)(F)F)c2=O)cc1 (stereo not drawn)
27 | 172 to 175 °C | C=C(C)CNc1cc(Cl)nnc1Cl
28 | 141 to 142 °C | CC(=O)Oc1ccc2cccc(OCC(=O)c3ccccc3)c2n1
29 | 101 to 104 °C | CC(=O)C(=C1SCCCN1Br)[N+](=O)[O-]
30 | 147 to 150 °C | C=Cc1ccccc1N1CCCCC1
31 | 227 to 228 °C | CNC(=O)Nc1snc(S(C)(=O)=O)c1C(N)=O
32 | 233 to 235 °C | CCNC(=O)n1cc(F)c(NC(C)=O)nc1=O
33 | 106 to 108 °C | COc1ccc2c(n1)C1(CO2)C(=O)N(Cc2ccc(C(F)(F)F)o2)c2cccc(Cl)c21 (stereo not drawn)
34 | 49.4 °C | CCC(C)COc1ccc(-c2ccc(O)c(Br)c2)cc1 (stereo not drawn)
35 | 176 to 178 °C | N#Cc1c2ccccc2c(-c2cc(Br)c(O[C@@H](Cc3ccccc3)C(=O)O)c(Br)c2)c2c1sc1ccccc12
36 | 108 to 109 °C | CC1=C(C(=O)OCCOc2ccccc2)C(c2ccccc2C(F)(F)F)c2c(ccnc2OCC(C)C)N1 (stereo not drawn)
37 | 214 to 215 °C | Cc1c(N2CCc3ccccc3C2)c(F)cn2c(=O)c(C(=O)O)cc(C3CC3)c12
38 | 87.5 °C | CCOC(=O)c1cc(C#N)cc(CO)n1

Reference: a melting point compilation (Tetko et al.; mined from patent text by program, amines drawn as free bases though some values may be those of a salt)
